These are literature values, as cited in US11608532B2, “Precision medicine for treating and preventing suicidality” (Indiana University Research and Technology Corporation, priority 2017, dated 2023).

Where two headings read alike, the source gives them in different places.

Series [1] has as its system top male bipolar biomarkers for suicidality.
The subject of series [2] is individual top biomarkers for suicidality. The conditions noted are these: for HTR2A modulated by drug in opposite direction to suicide: DE/2.
Where [3] appears, read: HTR2A, 244130_at, (I) in suicidality, male bipolars.
Where [4] appears, read: biomarker HTR2A (5-hydroxytryptamine (serotonin) receptor 2A, G protein-coupled).
[5] abbreviates: A. Top Universal Biomarkers, direction of change in suicidality (I).
[6] abbreviates: C. Top Biomarkers in Females, direction of change in suicidality I.
[7] abbreviates: D. Top Biomarkers in Bipolar Disorder, direction of change in suicidality (I).
Where [8] appears, read: F. Top Biomarkers in Males with Bipolar Disorder, direction of change in suicidality (I).

Regarding `Cc1nc2n(c(=O)c1CCN1CCC(c3noc4cc(F)ccc34)CC1)CCCC2` [Risperidone], the “Drugs that Modulate the Biomarker in Opposite Direction to Suicide” value in series [1] (setting [3]) is listed as “Risperidone”. Further, in series [2] (A. Top Universal Biomarkers, direction of change in suicidality (D), AP/1), the “IFNG modulated by drug in opposite direction to suicide” value was “Risperidone,”. The “Step 6 Drugs that Modulate the Biomarker in Opposite Direction to Suicide” value (“Step 6 Drugs that Modulate the Biomarker” below) in series [2] (setting [4]) is “Risperidone”.

For `CCCC(CCC)C(=O)O` [Valproate], the “Drugs that Modulate the Biomarker in Opposite Direction to Suicide” value in series [1] (setting [3]) is recorded as “Valproate”. In addition, the “known drugs or classes of drugs that have an opposite effect to suicidality on the biomarker's direction of change (pharmacogenomics)” value with BioM50 panel biomarkers (biomarker BCL2 (B-cell CLL/lymphoma 2)) is given as “Valproate”. In addition, the “Matching to Treatments (Pharmacogenomics) Drugs that Modulate the Biomarker in opposite Direction to Suicide” value was “Valproate” in the series with BioM50 panel biomarkers (biomarker NR3C1, probeset 201866_s_at, (D) decreased in high suicidal ideation) and “Valproate” in the series on BioM50 panel biomarkers (biomarker PRKAR2B, probeset 203680_at, (D) decreased in high suicidal ideation). Also, the “SLC4A4 modulated by drug in opposite direction to suicide” value is “Valproate” in series [2] (A. Top Universal Biomarkers, direction of change in suicidality (I), AP/1) and “Valproate” in series [2] (B. Top Biomarkers in Males, direction of change in suicidality I, AP/2). Also, the “HTR2A modulated by drug in opposite direction to suicide” value (“HTR2A modulated by drug” below) in series [2] (setting [5]), in series [2] (setting [6]), in series [2] (setting [7]) and in series [2] (setting [8]) was “Valproate” throughout. The “TPR modulated by drug in opposite direction to suicide” value in series [2] (C. Top Biomarkers in Females, direction of change in suicidality D, AP/4) is recorded as “Valproate”. Besides, the “TSPYL1 modulated by drug in opposite direction to suicide” value in series [2] (E. Top Biomarkers in Depression, direction of change in suicidality (D), AP/1) is “Valproate”; in series [2] (G. Top Biomarkers in Males with Depression, direction of change in suicidality D, AP/1) it was “Valproate”. Also, in series [2] (E. Top Biomarkers in Depression, direction of change in suicidality (D), DE/1), the “GLIPR1 modulated by drug in opposite direction to suicide” value is reported as “Valproate”. Moreover, the “Step 6 Drugs that Modulate the Biomarker” value in series [2] (biomarker CTTN (cortactin)), in series [2] (setting [4]), in series [2] (biomarker PKP4 (plakophilin 4)), in series [2] (biomarker PRKAR2B) and in series [2] (biomarker SLC4A4) was “Valproate” throughout. Moreover, the “Drugs that modulate the biomarker RBM3” value in series [2] (biomarker RBM3 (RNA binding motif (RNP1, RRM) protein 3), Table 20 CFE drug-evidence) is recorded as “Valproate”.

`CN1CCN2c3ncccc3Cc3ccccc3C2C1` (centres unmarked) [mirtazapine]: in series [1] (setting [3]), the “Drugs that Modulate the Biomarker in Opposite Direction to Suicide” value was “mirtazapine”. The “HTR2A modulated by drug” value in series [2] (setting [5]), in series [2] (setting [6]), in series [2] (setting [7]) and in series [2] (setting [8]) was “mirtazapine,” each time.

“omega-3 fatty acids [reference compound]”: in series [1], the “Drugs that Modulate the Biomarker in Opposite Direction to Suicide” value was “Omega-3” and the “Drugs that Modulate the Biomarker in Opposite Direction to Suicide (direction of change by drug)” value is “(I)”. Moreover, the “Matching to Treatments (Pharmacogenomics) Drugs that Modulate the Biomarker in opposite Direction to Suicide” value with BioM50 panel biomarkers was “Omega-3”.

Regarding `CN1C(=O)CN=C(c2ccccc2)c2cc(Cl)ccc21` [Diazepam], in series [1] (SPTBN1, 215918_s_at, (I) in suicidality, male bipolars), the “Drugs that Modulate the Biomarker in Opposite Direction to Suicide” value is listed as “Diazepam”. Besides, the “Step 6 Drugs that Modulate the Biomarker” value in series [2] (biomarker AKAP13 (A kinase (PRKA) anchor protein 13)), in series [2] (biomarker PGK1 (phosphoglycerate kinase 1)) and in series [2] (biomarker PSMB4) was “Diazepam” in each case. Moreover, the “Drugs that modulate the biomarker SPTBN1” value in series [2] (biomarker SPTBN1 (spectrin, beta, non-erythrocytic 1), Table 20 CFE drug-evidence) is reported as “Diazepam”.

Regarding `OCCOCCN1CCN(C2=Nc3ccccc3Sc3ccccc32)CC1` [quetiapine], in series [1] (setting [3]), the “Drugs that Modulate the Biomarker in Opposite Direction to Suicide” value was “quetiapine”.

With `CCc1nn(CCCN2CCN(c3cccc(Cl)c3)CC2)c(=O)n1CCOc1ccccc1` [nefazodone], the “Drugs that Modulate the Biomarker in Opposite Direction to Suicide” value in series [1] (setting [3]) was “nefazodone”.

On to `CN1C[C@H](C(=O)N[C@]2(C)O[C@@]3(O)[C@@H]4CCCN4C(=O)[C@H](Cc4ccccc4)N3C2=O)C=C2c3cccc4[nH]cc(c34)C[C@H]21` [ergotamine], for which the “Drugs that Modulate the Biomarker in Opposite Direction to Suicide” value in series [1] (setting [3]) is recorded as “ergotamine”.

Take `CN(C)CCCN1c2ccccc2CCc2ccc(Cl)cc21` [clomipramine]: the “Drugs that Modulate the Biomarker in Opposite Direction to Suicide” value in series [1] (setting [3]) was “clomipramine”.

For the molecule `CN1CCc2cccc3c2[C@H]1Cc1ccc(O)c(O)c1-3` [apomorphine], the “Drugs that Modulate the Biomarker in Opposite Direction to Suicide” value in series [1] (setting [3]) is recorded as “apomorphine”.

In the case of `Cc1nc2n(c(=O)c1CCN1CCC(c3noc4cc(F)ccc34)CC1)CCCC2O` (centres unmarked) [Paliperidone], the “Drugs that Modulate the Biomarker in Opposite Direction to Suicide” value in series [1] (setting [3]) is given as “Paliperidone”. For the same molecule, the “HTR2A modulated by drug” value in series [2] (setting [5]), in series [2] (setting [6]), in series [2] (setting [7]) and in series [2] (setting [8]) was “Paliperidone,” throughout. In addition, the “Step 6 Drugs that Modulate the Biomarker” value in series [2] (setting [4]) is reported as “Paliperidone,”.
